Tests used:
HCT-116 colon carcinoma = assay: Cytotoxicity against solid tumor cells, CCK-8, 72 hrs (Table 4); type: cell-based; conditions: Homo sapiens
Method: (§1) Compounds are also evaluated against A-549 lung carcinoma and SK-OV-3 ovarian adenocarcinoma cell lines using the methodology as for Table 3. The potency order for the compounds may vary in different tumor cell lines. […] Absorbance was measured using a Powerwave XS microplate spectrophotometer.

MX-1 mammary carcinoma = assay: as above; type: cell-based; conditions: Homo sapiens
Method: as §1

[1] = tested on: carrageenan-induced paw edema; assay: Carrageenan-induced paw edema; type: in vivo, CD mice; conditions: FIG. 17; 10, 15, 20 mg/kg iv injection
Method: FIG. 17 compares the anti-inflammatory effect of Compound (D), acetylsalicylic acid (aspirin), and LIDEX against carrageenan-induced paw edema in CD mice. […] The first vertical bar in each set is the control. The second vertical bar in each set is acetylsalicylic acid (200 mg/kg, oral). The third vertical bar in each set is LIDEX cream administered locally, the fourth vertical bar in each set is Compound (D) (10 mg/kg iv injection), the fifth vertical bar in each set is Compound (D) (15 mg/kg iv injection), and the sixth vertical bar in each set is Compound (D) (20 mg/kg iv injection). 1% Carrageenan (20 μL, i.m., injected directly into the paw of CD mice to produce paw edema) was administered at time=0. Compound (D) was administered at 24 hours prior to the carrageenan injection, 1 hour prior to the carrageenan injection, and 6 hours after the carrageenan injection. Acetylsalicylic acid was administered at 1 hour prior to the carrageenan injection, and 6 hours after the carrageenan injection. LIDEX cream was administered at 1 hour prior to the carrageenan injection, and 6 hours after the carrageenan injection. * means P<0.05 and ** means P<0.01.
The comparisons are made by comparing the volumes of the inflamed pedis area (induced by a injection of a 1% carageenan solution) at different time points after the initial carageenan injection. […]

[2] = tested on: quinone reductase (NQO1) in Hepa 1c1c7 murine hepatoma cells; assay: Phase 2 enzyme inducer activity (Prochaska microtiter plate bioassay)
Method: Pure panaxytriol was dissolved in dimethyl sulfoxide. Phase 2 enzyme inducer activity was measured using a rapid assay of activity of representative phase 2 enzyme in a cell line. This assay was originally developed by Prochaska and colleagues as in Prochaska H J, Santamaria A B, Talalay P. “Rapid detection of inducers of enzymes that protect against carcinogens.” Proc Natl Acad Sci US A 1992; 89:2394-2398, and has been further refined as in Fahey J W, Dinkova-Kostova A T, Stephenson K K, Talalay P. “The “Prochaska” microtiter plate bioassay for inducers of NQO1.” Methods Enzymol. 2004; 382:243-258, each of which are incorporated by reference in its entirety. Briefly, Hepa 1c1c7 murine hepatoma cells were grown in 96-well microtiter plates. Serial dilutions of the extracts or compounds which were assayed were added into the wells. After 48 hours, the cells were lysed and the activity of quinone reductase (NQO1) was assayed by the addition of a reaction mixture containing an NADPH-generating system, menadione and MTT. NQO1 catalyzes the reduction of menadione to menadiol by NADPH, and MTT is reduced nonenzymatically by menadiol, resulting in the formation of a blue color that can then be quantitated as in Prochaska H J, Santamaria A B. “Direct measurement of NAD(P)H:quinone reductase from cells cultured in microtiter wells: a screening assay for anticarcinogenic enzyme inducers.” Anal. Biochem. 1988; 169:328-336, which is incorporated by reference in its entirety. […] NQO1 activity and protein content of the lysate were measured in duplicate plates with an optical microtiter plate absorbance reader. […] One unit of inducer activity is defined as the amount that, when added to a single microtiter well, doubles the NQO1 specific activity. Sulforaphane and β-naphthoflavone were used as positive controls in each bioassay. […] NQO1 inducer activity was assayed as described herein, and is reported here as treated/control at different concentrations of ginseng extract or component per well. […] (+) Panaxytriol (molecular weight […]), (Δ) Protopanaxatriol (molecular weight 461), (◯) Korean red SUN GINSENG® extract. The reductase assay can also be performed as disclosed in PCT Publication No. WO 06/023821, the entire contents of which are hereby incorporated in the instant application.

Structure (SMILES)	IC50 (HCT-116 colon carcinoma) [nM]	IC50 (MX-1 mammary carcinoma) [nM]	anti-inflammatory effect [1]	potency as an inducer relative to protopanxadiol or protopanaxatriol [2]	significant cytotoxicity observed above ([2]; Hepa 1c1c7 cells)	inducer potency ([2]; NQO1)	concentration of doubling (CD), average ([2]; NQO1, 48 hours) [µM]
C=C[C@H](O)C#CC#CC[C@H]1OC(C)(C)O[C@@H]1CCCCCCC [Compound (D)]	617	5320	mild, slow on-set, anti-inflammatory effect	–	–	–	–
C=C[C@@H](O)C#CC#CC[C@@H](O)[C@H](O)CCCCCCC [panaxytriol]	–	–	–	over 10 fold	above 0.5 μg/well	5,760,000 U/g	3.85
